In publication PMC8972805, “Monomodular Pseudomonas aeruginosa phage JG004 lysozyme (Pae87) contains a bacterial surface-active antimicrobial peptide-like region and a possible substrate-binding subdomain” (Acta Crystallographica. Section D, Structural Biology, 2022):

Molecular target: T1, Pae87 (Pseudomonas phage JG004, UniProt F4YDQ3)
T1 construct: gene PJG4_087; full length, 186 residues, N-terminal 6xHis tag (pET-28a(+), tag kept, up to two tag residues modelled), synthetic gene, expressed in E. coli BL21(DE3); one molecule in asymmetric unit of the complex
T1 sequence (F4YDQ3 entry or part of it): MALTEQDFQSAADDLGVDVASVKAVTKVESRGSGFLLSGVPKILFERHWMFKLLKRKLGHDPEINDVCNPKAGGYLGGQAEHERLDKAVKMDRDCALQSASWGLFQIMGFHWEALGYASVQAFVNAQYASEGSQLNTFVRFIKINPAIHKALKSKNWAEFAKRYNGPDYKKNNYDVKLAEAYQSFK
Test: X-ray crystal structure of complex, […] Å
Assay type: binding
Details: fragment from PAO1 peptidoglycan hydrolysed by Pae87; second site about 18 Å from catalytic site (helices 4, 5 and 7); Tris-HCl pH 8.0, PEG MME 5000

SMILES: CC(=O)N[C@H]1[C@H](O[C@H]2[C@H](O[C@H](C)C(=O)N[C@@H](C)C(=O)N[C@H](CCC(=O)O)C(=O)O)[C@@H](NC(C)=O)C(O)O[C@@H]2CO)O[C@H](CO)[C@@H](O)[C@@H]1O (stereo partly shown) [peptidoglycan fragment]
- X-ray crystal structure of complex, 1.27 Å: the peptidoglycan fragment (comprised of linked NAG, MurNAc, L-alanine
